PMC3032781, “DNA Polymerase β as a Novel Target for Chemotherapeutic Intervention of Colorectal Cancer” (PLoS ONE, 2011)
pIC50: −log10 of the molar value.

Biological target: T1, Pol-β (Homo sapiens, UniProt P06746)
T1 construct: gene POLB; purified protein
Assay: strand-displacement synthesis on […]-labelled 63-mer F-DNA, denaturing gel
Type: biochemical
Conditions: pH 7.5, 30 mM KCl, 8 mM MgCl2, 37 °C, 30 min; 5 nM Pol-β, 2 nM APE1 (pre-incision), 2.5 nM DNA

- pIC50: 5.28
Substance: [5-(4-amino-6-iodo-2-oxo-5,6-dihydropyrimidin-1-yl)-3-hydroxy-oxolan-2-yl] methoxyphosphonic acid [NSC-124854]
